Reference: publication PMC4862888 (Journal of chromatography. B, Analytical technologies in …, 2015)

target: human serum albumin (HSA) (Homo sapiens, UniProt P02768); assay: zonal elution, high-performance affinity chromatography on entrapped HSA; assay type: binding
Sequence (P02768 25-609): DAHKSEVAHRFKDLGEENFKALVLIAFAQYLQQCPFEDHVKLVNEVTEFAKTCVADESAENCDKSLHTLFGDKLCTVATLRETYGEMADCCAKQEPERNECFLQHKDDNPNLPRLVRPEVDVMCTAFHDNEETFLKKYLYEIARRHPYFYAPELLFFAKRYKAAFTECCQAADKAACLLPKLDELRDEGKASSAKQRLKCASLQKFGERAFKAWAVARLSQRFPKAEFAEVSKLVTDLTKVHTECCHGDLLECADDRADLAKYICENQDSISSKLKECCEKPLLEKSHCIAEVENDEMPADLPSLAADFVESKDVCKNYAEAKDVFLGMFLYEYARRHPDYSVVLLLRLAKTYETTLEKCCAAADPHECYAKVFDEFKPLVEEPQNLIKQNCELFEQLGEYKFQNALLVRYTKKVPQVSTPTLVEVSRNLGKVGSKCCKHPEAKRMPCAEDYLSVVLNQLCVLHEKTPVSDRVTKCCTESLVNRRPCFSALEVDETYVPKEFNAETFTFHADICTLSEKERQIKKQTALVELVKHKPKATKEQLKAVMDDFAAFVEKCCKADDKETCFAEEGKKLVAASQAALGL

| Structure (SMILES) | Kd |
| --- | --- |
| CN(C)CCC=C1c2ccccc2CCc2ccccc21 [amitriptyline] | 17.9 µM |
| O=C(N[C@H](CO)[C@H](O)c1ccc([N+](=O)[O-])cc1)C(Cl)Cl [chloramphenicol] | 625 µM |
| CNCCC=C1c2ccccc2CCc2ccccc21 [nortriptyline] | 16.1 µM |
